Consider six molecules from patent publication US5399575A, “Pyridine compounds which have useful pharmaceutical activity” (Boehringer Mannheim GmbH, priority 1990, dated 1995).

What is called inhibition is the drop in the measured response relative to a control, in per cent.

The structures appear in SMILES notation.

The experiment deals with passive sensitised guinea pig lung parenchyma strips. The experiment is described as follows: Inhibition of the antigen-caused constriction of passive sensitised guinea pig lung parenchyma strips in vitro (organ bath). It counts as cell-based. The settings on record: Cavia porcellus; concentration 10 μM; ovalbumin-caused constriction, 20 min pre-incubation at 37° C.; % reduction of constriction amplitude vs untreated control constrictions; read-out: superfusion inhibition (%). As to the method: Inhibition of the antigen-caused constriction of passive sensitised guinea pig lung parenchyma strips in vitro (organ bath)
For the in vitro investigation of the compounds according to the invention, the inhibition of the antigen-caused constriction of passive sensitised guinea pig lung parenchyma strips was measured, as described in the following:
Pribright white guinea pigs were stunned by a neck blow and exsanguinated. The lungs were rinsed substantially free of blood in situ with Krebs buffer, pH 7.4.
Subsequently, the lungs were removed, cut up into strips (about 20×4×4 mm) and the strips passively sensitised for one hour at room temperature with a 1:50 dilution of a homologous anti-ovalbumin antiserum and then washed 1× with Krebs buffer.
The antiserum was previously produced according to DAVIES in guinea pigs of the same strain by repeated injection of ovalbumin (2×crystallised) with addition of complete Freund's adjuvant.
Until its use, the antiserum was stored at -18° C. undiluted.
Subsequently, the lung strips were suspended individually on an isometric measurement sensor with an initial tension of 1.2 g.
Thereafter, the baths were filled with Krebs buffer and continously gassed at 37° C. with O2 (95%) and CO2 (5%). The constrictions of the lung strips were recorded on a recorder via an amplifier.
After 30 minutes acclimatisation phase, histamine control spasms were produced for the recognition of the reaction ability of the organ pieces, washed, subsequently the test substance pre-incubated at 37° C. for 20 minutes and thereafter the ovalbumin-caused constriction initiated.
The inhibition actions of the compounds according to the invention were expressed as percentage reduction of the constriction amplitude of the "samples with test substance" in relationship to the "untreated control constrictions".
As to `O=C(O)c1ccccc1SCCCCOc1ccc(C=Cc2ccncc2)cc1` [Example 12, 2-{4-{4-[2-(4-Pyridinyl)-ethenyl]-phenoxy}-butylthio}-benzoic acid], the inhibition at 10 µM stood at 42%. The result for `O=C(O)c1ccccc1SCCCOc1ccc(CCc2ccncc2)cc1` [Example 14, 2-{3-{4-[2-(4-Pyridinyl)-ethyl]-phenoxy}-propylthio}-benzoic acid] reads 56%. As to `C(=Cc1ccc(OCCCCc2nnn[nH]2)cc1)c1ccncc1` [Example 15, 5-{4-{4-[2-(4-Pyridinyl)-ethenyl]-phenoxy}butyl}-1H-tetrazole], the inhibition at 10 µM turned out to be 56%. The result for `O=C(CCCOc1ccc(CCc2ccncc2)cc1)Nc1nnn[nH]1` [Example 18b] reads 32%; that for `O=C(CCCCOc1ccccc1C=Cc1ccccn1)Nc1nnn[nH]1` [Example 18c, 5-{2-[2-(2-pyridinyl)-ethenyl]-phenoxy}-valeric acid N-(1H-tetrazol-5-yl)-amide], 33%. The result for `O=C(CCCCOc1ccccc1CCc1ccccn1)Nc1nnn[nH]1` [Example 18h, 5-{2-[2-(2-pyridinyl)-ethyl]-phenoxy}-valeric acid N-(1H-tetrazol-5-yl)-amide] reads 53%.
